Test results as given in patent publication US8669271B2 (Boehringer Ingelheim International GmbH, priority 2010, dated 2014).
pEC50: −log10 of the molar value.

These compounds were tested against T1, human GPR119 (Homo sapiens, UniProt Q8TDV5) (assay: AlphaScreen cAMP assay in Min-6/hGPR119 cells (activation of GPR119, intracellular cAMP)). Conditions: MIN6 cells stably transfected with human GPR119; cAMP by AlphaScreen after 45 minutes incubation at room temperature.
T1 construct: expression vector for human GPR119 cDNA (Acc. No. NP_848566); expressed in transfected cells
T1 sequence (Q8TDV5 1-335): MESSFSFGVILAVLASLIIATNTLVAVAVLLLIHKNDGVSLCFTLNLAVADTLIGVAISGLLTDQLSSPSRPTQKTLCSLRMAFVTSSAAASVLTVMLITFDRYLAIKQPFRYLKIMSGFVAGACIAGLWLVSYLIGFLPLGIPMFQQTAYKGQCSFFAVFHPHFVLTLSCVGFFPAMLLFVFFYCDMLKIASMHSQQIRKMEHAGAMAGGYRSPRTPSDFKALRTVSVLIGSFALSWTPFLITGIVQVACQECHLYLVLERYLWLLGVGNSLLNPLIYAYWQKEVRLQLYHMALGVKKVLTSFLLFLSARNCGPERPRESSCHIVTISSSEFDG
Assay type: cell-based
Method: The compounds of formula I according to the invention modulate the activity of the G-protein-coupled receptor GPR119. The effect of the compounds on the activation of GPR119 and on the stimulation of intracellular cAMP concentration is determined using the AlphaScreen cAMP Assay Kit (Cat.No.#6760625R) made by PerkinElmer.
MIN6 cells [Miyazaki J et al. Endocrinology. 1990 July; 127(1):126-32] are stably transfected with an expression vector for human GPR119 cDNA (Acc. No. NP_848566). Min-6/hGPR119 cells are cultured in DMEM, 10% FBS, 50 μM β-mercaptoethanol, 0.3 mg/mL Geniticin, 2 mM GlutaMAX at 37° C. 5% CO2. For the assay, the cells are seeded in Optiplates (white, 384-well, 160W— barcoded, TC, sterile with lid, Cat.No.#6007688 (Perkin Elmer); 10000 cells/well; 50 μl). The plates covered with lids are then incubated for 24 hours at 37° C./5% CO2. After the medium is aspirated from the wells completely, 10 μl of the test compound are added, the compounds are diluted using stimulating buffer (140 mM NaCl, 3.6 mM KCl, 0.5 mM NaH2PO4, 0.5 mM MgSO4, 1.5 mM CaCl2, 10 mM Hepes, 5 mM NaHCO3; pH 7.4. 0.5 mM IBMX and 0.1% BSA, the final DMSO concentration is 1%). After 45 minutes incubation at room temperature (approx. 20° C.), the cAMP concentrations are determined using the AlphaScreen cAMP Assay Kit (Cat.No.#6760625R from PerkinElmer).
CC(C)(C)OC(=O)N1CCC(C2Cc3cc(-c4ccc(CS(C)(=O)=O)cc4F)ncc3O2)CC1 (single isomer, unassigned) [Example 75] showed a pEC50 of 7.85. CC(C)(C)OC(=O)N1CCC(C2Cc3cc(-c4ccc(CS(C)(=O)=O)cc4F)ncc3O2)CC1 (single isomer, unassigned) [Example 76] gave a pEC50 of 7.26. With CC(C)OC(=O)N1CCC(C2Cc3cc(-c4ccc(S(C)(=O)=O)cc4)ccc3O2)CC1 (centres unmarked) [Example 1, 4-[5-(4-Methanesulfonyl-phenyl)-2,3-dihydro-benzofuran-2-yl]-piperidine-1-carboxylic acid isopropyl ester] the pEC50 was 7.49. In the case of CC(C)OC(=O)N1CCC(C2Cc3cc(-c4ccc(S(C)(=O)=O)nc4)ccc3O2)CC1 (centres unmarked) [Example 2, 4-[5-(6-Methanesulfonyl-pyridin-3-yl)-2,3-dihydro-benzofuran-2-yl]-piperidine-1-carboxylic acid isopropyl ester], the pEC50 was 7.15. With CC(C)OC(=O)N1CCC(C2Cc3cc(-c4ccc(S(C)(=O)=O)cn4)ccc3O2)CC1 (centres unmarked) [Example 3, 4-[5-(5-Methanesulfonyl-pyridin-2-yl)-2,3-dihydro-benzofuran-2-yl]-piperidine-1-carboxylic acid isopropyl ester] the pEC50 was 7.41. CC(C)OC(=O)N1CCC(C2Cc3cc(-c4ccc(C#N)cc4)ccc3O2)CC1 (centres unmarked) [Example 4, 4-[5-(4-Cyano-phenyl)-2,3-dihydro-benzofuran-2-yl]-piperidine-1-carboxylic acid isopropyl ester] was tested, and the pEC50 was 6.70. CS(=O)(=O)c1ccc(-c2ccc3c(c2)CC(C2CCN(C(=O)OC4CCC4)CC2)O3)cc1 (centres unmarked) [Example 5, 4-[5-(4-Methanesulfonyl-phenyl)-2,3-dihydro-benzofuran-2-yl]-piperidine-1-carboxylic acid cyclobutyl ester] gave a pEC50 of 7.74. Compound Cc1cc(C#N)cnc1-c1ccc2c(c1)CC(C1CCN(C(=O)OC(C)C)CC1)O2 (centres unmarked) [Example 8, 4-[5-(5-Cyano-3-methyl-pyridin-2-yl)-2,3-dihydro-benzofuran-2-yl]-piperidine-1-carboxylic acid isopropyl ester] has a pEC50 of 6.64. Work on Cc1cc(-c2ccc3c(c2)CC(C2CCN(C(=O)OC(C)C)CC2)O3)cnc1C#N (centres unmarked) [Example 9, 4-[5-(6-Cyano-5-methyl-pyridin-3-yl)-2,3-dihydro-benzofuran-2-yl]-piperidine-1-carboxylic acid isopropyl ester] yielded a pEC50 of 6.36. Cc1cc(S(C)(=O)=O)ccc1-c1ccc2c(c1)CC(C1CCN(C(=O)OC(C)C)CC1)O2 (centres unmarked) [Example 10, 4-[5-(4-Methanesulfonyl-2-methyl-phenyl)-2,3-dihydro-benzofuran-2-yl]-piperidine-1-carboxylic acid isopropyl ester] showed a pEC50 of 6.92. In the case of Cc1cc([S+](C)[O-])ccc1-c1ccc2c(c1)CC(C1CCN(C(=O)OC(C)C)CC1)O2 (centres unmarked) [Example 11, 4-[5-(4-Methanesulfinyl-2-methyl-phenyl)-2,3-dihydro-benzofuran-2-yl]-piperidine-1-carboxylic acid isopropyl ester], the pEC50 was 6.52. With CC(C)(C)OC(=O)N1CCC(C2Cc3nc(-c4ccc(S(C)(=O)=O)cc4)cnc3O2)CC1 (centres unmarked) [Example 12, 4-[2-(4-Methanesulfonyl-phenyl)-6,7-dihydro-furo[2,3-b]byrazin-6-yl]-piperidine-1-carboxylic acid tert-butyl ester] the pEC50 was 6.60. CC(C)(C)OC(=O)N1CCC(C2Cc3nc(-c4ccc(S(C)(=O)=O)cc4)ccc3O2)CC1 (centres unmarked) [Example 13, 4-[5-(4-Methanesulfonyl-phenyl)-2,3-dihydro-furo[3,2-b]pyridin-2-yl]-piperidine-1-carboxylic acid tert-butyl ester] showed a pEC50 of 6.67. In the case of CC(C)(C)OC(=O)N1CCC(C2Cc3cc(-c4ccc(S(C)(=O)=O)cn4)ccc3O2)CC1 (centres unmarked) [Example 14, 4-[5-(5-Methanesulfonyl-pyridin-2-yl)-2,3-dihydro-benzofuran-2-yl]-piperidine-1-carboxylic acid tert-butyl ester], the pEC50 was 7.89. CC(C)(C)OC(=O)N1CCC(C2Cc3cc(-c4ccc(S(C)(=O)=O)cc4)ncc3O2)CC1 (centres unmarked) [Example 15, 4-[5-(4-Methanesulfonyl-phenyl)-2,3-dihydro-furo[2,3-c]pyridin-2-yl]-piperidine-1-carboxylic acid tert-butyl ester] gave a pEC50 of 8.05. CC(C)OC(=O)N1CCC(C2Cc3cc(-c4cncnc4)ccc3O2)CC1 (centres unmarked) [Example 16, 4-(5-Pyrimidin-5-yl-2,3-dihydro-benzofuran-2-yl)-piperidine-1-carboxylic acid isopropyl ester] was tested, and the pEC50 was 6.73. CC1(OC(=O)N2CCC(C3Cc4cc(-c5ccc(S(C)(=O)=O)cc5)ccc4O3)CC2)CC1 (centres unmarked) [Example 17, 4-[5-(4-Methanesulfonyl-phenyl)-2,3-dihydro-benzofuran-2-yl]-piperidine-1-carboxylic acid 1-methyl-cyclopropyl ester] gave a pEC50 of 7.34. With Cc1nc(S(C)(=O)=O)ccc1-c1ccc2c(c1)CC(C1CCN(C(=O)OC(C)C)CC1)O2 (centres unmarked) [Example 18, 4-[5-(6-Methanesulfonyl-2-methyl-pyridin-3-yl)-2,3-dihydro-benzofuran-2-yl]-piperidine-1-carboxylic acid isopropyl ester] the pEC50 was 6.83. With Cc1cc(S(C)(=O)=O)ncc1-c1ccc2c(c1)CC(C1CCN(C(=O)OC(C)C)CC1)O2 (centres unmarked) [Example 19, 4-[5-(6-Methanesulfonyl-4-methyl-pyridin-3-yl)-2,3-dihydro-benzofuran-2-yl]-piperidine-1-carboxylic acid isopropyl ester] the pEC50 was 6.00. CC1(OC(=O)N2CCC(C3Cc4cc(-c5ccc(S(C)(=O)=O)cc5)ncc4O3)CC2)CC1 (centres unmarked) [Example 20, 4-[5-(4-Methanesulfonyl-phenyl)-2,3-dihydro-furo[2,3-c]pyridin-2-yl]-piperidine-1-carboxylic acid 1-methyl-cyclopropyl ester] showed a pEC50 of 7.77. Compound CC(C)(C)OC(=O)N1CCC(C2Cc3cc(-c4cnco4)ccc3O2)CC1 (centres unmarked) [Example 21, 4-(5-Oxazol-5-yl-2,3-dihydro-benzofuran-2-yl)-piperidine-1-carboxylic acid tert-butyl ester] has a pEC50 of 7.11. Work on CC(C)(C)OC(=O)N1CCC(C2Cc3nc(-c4ccc(S(C)(=O)=O)cc4)ncc3O2)CC1 (centres unmarked) [Example 22, 4-[2-(4-Methanesulfonyl-phenyl)-6,7-dihydro-furo[3,2-d]pyrimidin-6-yl]-piperidine-1-carboxylic acid tert-butyl ester] yielded a pEC50 of 7.35. CC(C)(C)OC(=O)N1CCC(C2Cc3cc(-c4ccc(S(C)(=O)=O)cc4F)ncc3O2)CC1 (centres unmarked) [Example 23, 4-[5-(2-Fluoro-4-methanesulfonyl-phenyl)-2,3-dihydro-furo[2,3-c]pyridin-2-yl]-piperidine-1-carboxylic acid tert-butyl ester] gave a pEC50 of 7.74. For CS(=O)(=O)c1ccc(-c2cc3c(cn2)OC(C2CCN(C(=O)OC4CCC4)CC2)C3)cc1 (centres unmarked) [Example 24, 4-[5-(4-Methanesulfonyl-phenyl)-2,3-dihydro-furo[2,3-c]pyridin-2-yl]-piperidine-1-carboxylic acid cyclobutyl ester], the pEC50 was 7.77. With CC(C)(C)OC(=O)N1CCC(C2Cc3cc(-c4ccc(C(N)=O)cc4F)ncc3O2)CC1 (centres unmarked) [Example 26, 4-[5-(4-Carbamoyl-2-fluoro-phenyl)-2,3-dihydro-furo[2,3-c]pyridin-2-yl]-piperidine-1-carboxylic acid tert-butyl ester] the pEC50 was 7.06. CNC(=O)c1ccc(-c2cc3c(cn2)OC(C2CCN(C(=O)OC(C)(C)C)CC2)C3)c(F)c1 (centres unmarked) [Example 27, 4-[5-(2-Fluoro-4-methylcarbamoyl-phenyl)-2,3-dihydro-furo[2,3-c]pyridin-2-yl]-piperidine-1-carboxylic acid tert-butyl ester] was tested, and the pEC50 was 7.62. For CC(C)(C)OC(=O)N1CCC(C2Cc3cc(-c4ccc(C#N)c(F)c4)ncc3O2)CC1 (centres unmarked) [Example 28, 4-[5-(4-Cyano-3-fluoro-phenyl)-2,3-dihydro-furo[2,3-c]hyridin-2-yl]-piperidine-1-carboxylic acid tert-butyl ester], the pEC50 was 7.64. Compound CC(C)(C)OC(=O)N1CCC(C2Cc3cc(-c4ccc(C#N)cc4F)ncc3O2)CC1 (centres unmarked) [Example 29, 4-[5-(4-Cyano-2-fluoro-phenyl)-2,3-dihydro-furo[2,3-c]pyridin-2-yl]-piperidine-1-carboxylic acid tert-butyl ester] has a pEC50 of 7.92. CC(C)(C)OC(=O)N1CCC(C2Cc3cc(-c4ccc(S(N)(=O)=O)cc4)ncc3O2)CC1 (centres unmarked) [Example 30, 4-[5-(4-Sulfamoyl-phenyl)-2,3-dihydro-furo[2,3-c]pyridin-2-yl]-piperidine-1-carboxylic acid tert-butyl ester] was tested, and the pEC50 was 7.08.
